Experimental data taken from patent publication US20190134005A1 (BioMarin Pharmaceutical Inc., priority 2016, published 2019).
Like-named read-outs stand apart in the source and are kept apart here.

Biological target: T1, human CGT (Homo sapiens, UniProt Q16880)
T1 sequence (Q16880 21-541): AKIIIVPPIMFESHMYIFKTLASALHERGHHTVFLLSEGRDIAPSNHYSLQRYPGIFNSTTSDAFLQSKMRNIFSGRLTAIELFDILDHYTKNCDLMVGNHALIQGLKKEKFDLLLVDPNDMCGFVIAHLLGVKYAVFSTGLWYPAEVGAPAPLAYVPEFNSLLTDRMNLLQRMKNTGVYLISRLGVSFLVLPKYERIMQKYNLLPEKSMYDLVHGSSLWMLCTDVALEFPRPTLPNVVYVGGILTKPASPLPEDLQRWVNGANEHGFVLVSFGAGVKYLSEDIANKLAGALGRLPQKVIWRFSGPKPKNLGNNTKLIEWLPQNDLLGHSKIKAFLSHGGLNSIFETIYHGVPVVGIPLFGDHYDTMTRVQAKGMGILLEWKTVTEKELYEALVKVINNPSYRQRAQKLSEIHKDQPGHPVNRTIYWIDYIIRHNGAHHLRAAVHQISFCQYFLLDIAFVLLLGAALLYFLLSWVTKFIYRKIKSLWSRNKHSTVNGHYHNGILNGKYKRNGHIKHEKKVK
Assay: Assay 1: CGT Enzymatic Assay (RapidFire/MS/MS, 0.01% Tween 80)
Format: biochemical
Conditions: Table 1, Compounds of Formula (I) and Formula (II), CGT enzymatic assay, read-out: IC50

[1] = C6-NBD-dihydro-galactosylceramide readout

IC50 [1] | IC50 | Structure (SMILES)
– | < 1000 nM | CCC[C@@H]1N(c2ccc(Cl)cc2)C(=O)N(c2ccc(Cl)cc2)C1(O)c1cccc(Cl)c1 (stereo partly drawn) [Compound 114-1, (5S)-4-(3-chlorophenyl)-1,3-bis(4-chlorophenyl)-4-hydroxy-5-propylimidazolidin-2-one]
– | 1000 to 10000 nM | C[C@@H]1N(c2ccccc2)C(=O)N(c2ccccc2)C1(O)c1cccc(OC(F)(F)F)c1 (stereo partly drawn) [Example 230-1, (5S)-4-hydroxy-5-methyl-1,3-diphenyl-4-(3-(trifluoromethoxy)phenyl)imidazolidin-2-one]
– | < 1000 nM | CC[C@H]1N(c2ccc(Cl)cc2)C(=O)N(c2ccc(Cl)cc2)C1(O)c1cccc(OC(F)F)c1 (stereo partly drawn) [Compound 118-2, (5R)-1,3-bis(4-chlorophenyl)-4-(3-(difluoromethoxy)phenyl)-5-ethyl-4-hydroxyimidazolidin-2-one]
– | < 1000 nM | CCC[C@H]1N(c2ccc(Cl)cc2)C(=O)N(c2ccc(Cl)cc2)C1(O)c1cccc(OC(F)(F)F)c1 (stereo partly drawn) [Compound 91-2, (5R)-1,3-bis(4-chlorophenyl)-4-hydroxy-5-propyl-4-(3-(trifluoromethoxy)phenyl)imidazolidin-2-one]
– | < 1000 nM | O=C1N(c2ccc(Br)cc2)[C@H](C2CC2)C(O)(c2ccccc2)N1c1ccc(Br)cc1 (stereo partly drawn) [Compound 115-2, (5R)-1,3-bis(4-bromophenyl)-5-cyclopropyl-4-hydroxy-4-phenylimidazolidin-2-one]

Second part, the compound before the results:

Structure (SMILES) | IC50 [1] | IC50
Cc1ccc(N2C(=O)N(c3ccc(Cl)cc3)C(O)(c3cccc(C#N)c3)C23COC3)cc1 (centres unmarked) [Compound 283, 3-(7-(4-chlorophenyl)-8-hydroxy-6-oxo-5-(p-tolyl)-2-oxa-5,7-diazaspiro[3.4]octan-8-yl)benzonitrile] | < 1000 nM | –
Cc1ccc(N2C(=O)N(c3ccc(C)cc3)C(O)(c3cccc(OC(F)(F)F)c3)C23CCCC3)cc1 (centres unmarked) [Example 327, 4-hydroxy-1,3-di-p-tolyl-4-(3-(trifluoromethoxy)phenyl)-1,3-diazaspiro[4.4]nonan-2-one] | < 1000 nM | –
CN1CC2(C1)N(c1ccc(Cl)cc1)C(=O)N(c1ccc(Cl)cc1)C2(O)c1cccc(C#N)c1 (centres unmarked) [Compound 301, 3-(5,7-bis(4-chlorophenyl)-8-hydroxy-2-methyl-6-oxo-2,5,7-triazaspiro[3.4]octan-8-yl)benzonitrile 2,2,2-trifluoroacetate] | < 1000 nM | –
N#Cc1ccc(N2C(=O)N(c3ccc(C#N)cc3)C(O)(c3cccc(C#N)c3)C23CCC3)cc1 (centres unmarked) [Compound 294, 4,4′-(8-(3-cyanophenyl)-8-hydroxy-6-oxo-5,7-diazaspiro[3.4]octane-5,7-diyl)dibenzonitrile] | < 1000 nM | –
Cc1ccc(N2C(=O)N(c3ccc(C#N)cc3)C3(CCC3)C2(O)c2cccc(OC(F)(F)F)c2)cc1 (centres unmarked) [Compound 279, 4-(8-hydroxy-6-oxo-7-(p-tolyl)-8-(3-(trifluoromethoxy)phenyl)-5,7-diazaspiro[3.4]octan-5-yl)benzonitrile] | < 1000 nM | –
CCC[C@@H]1N(c2ccc(Cl)cc2)C(=O)N(c2ccc(Cl)cc2)C1(O)c1cccc(C(F)(F)F)c1 (single isomer, unassigned) [Compound 87-1] | – | < 1000 nM
CC(C)c1c(-c2ccccc2)n(-c2ccc(Br)cc2)c(=O)n1-c1ccc(Br)cc1 [Compound 267, 1,3-bis(4-bromophenyl)-4-isopropyl-5-phenyl-1,3-dihydro-2H-imidazol-2-one] | < 1000 nM | –
Cc1c(-c2cccc(C(C)O)c2)n(-c2ccc(Cl)cc2)c(=O)n1-c1ccc(Cl)cc1 (centres unmarked) [Example 37, 1,3-bis(4-chlorophenyl)-4-(3-(1-hydroxyethyl)phenyl)-5-methyl-1,3-dihydro-2H-imidazol-2-one] | – | 1000 to 10000 nM
O=C1N(c2ccc(Br)cc2)C(=O)C(O)(c2ccc(OCC3CCCC3)cc2)N1c1ccc(Br)cc1 (centres unmarked) [Example 183, 1,3-bis(4-bromophenyl)-5-(4-(cyclopentylmethoxy)phenyl)-5-hydroxyimidazolidine-2,4-dione] | – | > 50000 nM
